This assay deals with T1, Bcl-2 protein (Recombinant Human Bcl-2 Protein) (Homo sapiens, UniProt P10415).
T1 construct: purchased Novus NBP2-34889
In words: Binding evaluation of mixture library compounds to Bcl-2 using AS-MS (affinity selection mass spectrometry). The conditions noted are these: AS-MS on the mixture of 1200 library compounds, ASMS Ratio(%)=(A−C)/B×100; for ASMS ratio (%) n = 1: replicate n = 1; for ASMS ratio (%) n = 2: replicate n = 2. In outline: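 Bcl-2 binding is scored from LC/MS signal retained with protein through gel-filtration spin columns, normalised to unfiltered and protein-free controls. Incubation: 20 μM protein, […] per compound, 1 h, 23° C.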

T1 sequence (P10415 whole entry): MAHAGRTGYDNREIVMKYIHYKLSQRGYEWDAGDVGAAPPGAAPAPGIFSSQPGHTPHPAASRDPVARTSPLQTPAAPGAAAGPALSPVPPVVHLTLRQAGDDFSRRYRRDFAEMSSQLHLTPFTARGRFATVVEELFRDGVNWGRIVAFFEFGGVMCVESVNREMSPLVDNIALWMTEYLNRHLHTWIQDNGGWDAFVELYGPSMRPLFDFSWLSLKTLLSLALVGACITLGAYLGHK

`CCOc1cncc(-c2cc(C(=O)N3CCN(c4ccc(C(=O)N(C)CC56CC7CC(CC(C7)C5)C6)nn4)CC3)cc(C(C)(C)C)c2)c1` [B3A016-01, N-(1-Adamantylmethyl)-6-[4-[3-tert-butyl-5-(5-ethoxypyridin-3-yl)benzoyl]piperazin-1-yl]-N-methylpyridazine-3-carboxamide]: the “ASMS ratio (%) n = 1” value came to 2.8% and the “ASMS ratio (%) n = 2” value is recorded as 0.1%.

On to `CCOc1cccc(-c2cc(C(=O)N3CCN(c4ccc(C(=O)N(C)CC56CC7CC(CC(C7)C5)C6)nn4)CC3)cc(C(F)(F)F)c2)c1` [B3A017-01, N-(1-Adamantylmethyl)-6-[4-[3-(3-ethoxyphenyl)-5-(trifluoromethyl)benzoyl]piperazin-1-yl]-N-methylpyridazine-3-carboxamide], for which the “ASMS ratio (%) n = 1” value stood at 6.9% and the “ASMS ratio (%) n = 2” value is −6.3%.

Consider `CCOc1cncc(-c2cc(C(=O)N3CCN(c4ccc(C(=O)N(C)CC56CC7CC(CC(C7)C5)C6)nn4)CC3)cc(C(F)(F)F)c2)c1` [B3A018-01, N-(1-Adamantylmethyl)-6-[4-[3-(5-ethoxypyridin-3-yl)-5-(trifluoromethyl)benzoyl]piperazin-1-yl]-N-methylpyridazine-3-carboxamide], for which the “ASMS ratio (%) n = 1” value turned out to be 5.0% and the “ASMS ratio (%) n = 2” value is 1.8%.

With `CCOc1cccc(-c2cnn(-c3cc(C(=O)N4CCN(c5ccc(C(=O)N(C)CC67CC8CC(CC(C8)C6)C7)nn5)CC4)cc(C(F)(F)F)c3)c2)c1` [B3A021-01, N-(1-Adamantylmethyl)-6-[4-[3-[4-(3-ethoxyphenyl)pyrazol-1-yl]-5-(trifluoromethyl)benzoyl]piperazin-1-yl]-N-methylpyridazine-3-carboxamide], the “ASMS ratio (%) n = 1” value stood at 12.5% and the “ASMS ratio (%) n = 2” value was −8.4%.

On to `CCOc1cncc(-c2cnn(-c3cc(C(=O)N4CCN(c5ccc(C(=O)N(C)CC67CC8CC(CC(C8)C6)C7)nn5)CC4)cc(C(F)(F)F)c3)c2)c1` [B3A022-01, N-(1-Adamantylmethyl)-6-[4-[3-[4-(5-ethoxypyridin-3-yl)pyrazol-1-yl]-5-(trifluoromethyl)benzoyl]piperazin-1-yl]-N-methylpyridazine-3-carboxamide], for which the “ASMS ratio (%) n = 1” value came out at 4.9% and the “ASMS ratio (%) n = 2” value is on record as 7.2%.

For `CCOc1cccc(-c2csc(C(=O)N3CCN(c4ccc(C(=O)N(C)CC56CC7CC(CC(C7)C5)C6)cc4)CC3)c2)c1` [B3A023-01, N-(1-Adamantylmethyl)-4-[4-[4-(3-ethoxyphenyl)thiophene-2-carbonyl]piperazin-1-yl]-N-methylbenzamide], the “ASMS ratio (%) n = 1” value amounted to 2.4% and the “ASMS ratio (%) n = 2” value was determined as 1.7%.

Consider `CCOc1cncc(-c2csc(C(=O)N3CCN(c4ccc(C(=O)N(C)CC56CC7CC(CC(C7)C5)C6)cc4)CC3)c2)c1` [B3A024-01, N-(1-Adamantylmethyl)-4-[4-[4-(5-ethoxypyridin-3-yl)thiophene-2-carbonyl]piperazin-1-yl]-N-methylbenzamide], for which the “ASMS ratio (%) n = 1” value is recorded as 1.6% and the “ASMS ratio (%) n = 2” value is given as −0.4%.

For the molecule `CCOc1cccc(-c2ccc(C(=O)N3CCN(c4ccc(C(=O)N(C)CC56CC7CC(CC(C7)C5)C6)cc4)CC3)cc2C)c1` [B3A025-01, N-(1-Adamantylmethyl)-4-[4-[4-(3-ethoxyphenyl)-3-methylbenzoyl]piperazin-1-yl]-N-methylbenzamide], the “ASMS ratio (%) n = 1” value was 15.7% and the “ASMS ratio (%) n = 2” value is listed as −19.6%.

In the case of `CCOc1cncc(-c2ccc(C(=O)N3CCN(c4ccc(C(=O)N(C)CC56CC7CC(CC(C7)C5)C6)cc4)CC3)cc2C)c1` [B3A026-01, N-(1-Adamantylmethyl)-4-[4-[4-(5-ethoxypyridin-3-yl)-3-methylbenzoyl]piperazin-1-yl]-N-methylbenzamide], the “ASMS ratio (%) n = 1” value is given as 4.4% and the “ASMS ratio (%) n = 2” value is recorded as 0.6%.

Consider `CCOc1cccc(-c2ccc(C(=O)N3CCN(c4ccc(C(=O)N(C)CC56CC7CC(CC(C7)C5)C6)cc4)CC3)cc2F)c1` [B3A027-01, N-(1-Adamantylmethyl)-4-[4-[4-(3-ethoxyphenyl)-3-fluorobenzoyl]piperazin-1-yl]-N-methylbenzamide], for which the “ASMS ratio (%) n = 1” value is recorded as −0.7% and the “ASMS ratio (%) n = 2” value is reported as −1.6%.

For `CCOc1cncc(-c2ccc(C(=O)N3CCN(c4ccc(C(=O)N(C)CC56CC7CC(CC(C7)C5)C6)cc4)CC3)cc2F)c1` [B3A028-01, N-(1-Adamantylmethyl)-4-[4-[4-(5-ethoxypyridin-3-yl)-3-fluorobenzoyl]piperazin-1-yl]-N-methylbenzamide], the “ASMS ratio (%) n = 1” value worked out at 9.8% and the “ASMS ratio (%) n = 2” value came out at 1.6%.

For `CCOc1cccc(C#Cc2ccccc2C(=O)N2CCN(c3ccc(C(=O)N(C)CC45CC6CC(CC(C6)C4)C5)cc3)CC2)c1` [B3A029-01, N-(1-Adamantylmethyl)-4-[4-[2-[2-(3-ethoxyphenyl)ethynyl]benzoyl]piperazin-1-yl]-N-methylbenzamide], the “ASMS ratio (%) n = 1” value came to 0.0% and the “ASMS ratio (%) n = 2” value is listed as 0.0%.

As to `CCOc1cncc(C#Cc2ccccc2C(=O)N2CCN(c3ccc(C(=O)N(C)CC45CC6CC(CC(C6)C4)C5)cc3)CC2)c1` [B3A030-01, N-(1-Adamantylmethyl)-4-[4-[2-[2-(5-ethoxypyridin-3-yl)ethynyl]benzoyl]piperazin-1-yl]-N-methylbenzamide], the “ASMS ratio (%) n = 1” value was 8.4% and the “ASMS ratio (%) n = 2” value is reported as −15.2%.

Turning to `CCOc1cccc(C#Cc2cncc(C(=O)N3CCN(c4ccc(C(=O)N(C)CC56CC7CC(CC(C7)C5)C6)cc4)CC3)c2)c1` [B3A031-01, N-(1-Adamantylmethyl)-4-[4-[5-[2-(3-ethoxyphenyl)ethynyl]pyridine-3-carbonyl]piperazin-1-yl]-N-methylbenzamide], the “ASMS ratio (%) n = 1” value is recorded as 8.4% and the “ASMS ratio (%) n = 2” value was −15.2%.

With `CCOc1cncc(C#Cc2cncc(C(=O)N3CCN(c4ccc(C(=O)N(C)CC56CC7CC(CC(C7)C5)C6)cc4)CC3)c2)c1` [B3A032-01, N-(1-Adamantylmethyl)-4-[4-[5-[2-(5-ethoxypyridin-3-yl)ethynyl]pyridine-3-carbonyl]piperazin-1-yl]-N-methylbenzamide], the “ASMS ratio (%) n = 1” value came to 9.1% and the “ASMS ratio (%) n = 2” value is listed as −5.1%.

In the case of `CCOc1cccc(-c2ccccc2CCC(=O)N2CCN(c3ccc(C(=O)N(C)CC45CC6CC(CC(C6)C4)C5)cc3)CC2)c1` [B3A033-01, N-(1-Adamantylmethyl)-4-[4-[3-[2-(3-ethoxyphenyl)phenyl]propanoyl]piperazin-1-yl]-N-methylbenzamide], the “ASMS ratio (%) n = 1” value amounted to 1.1% and the “ASMS ratio (%) n = 2” value is recorded as −0.6%.

Regarding `CCOc1cncc(-c2ccccc2CCC(=O)N2CCN(c3ccc(C(=O)N(C)CC45CC6CC(CC(C6)C4)C5)cc3)CC2)c1` [B3A034-01, N-(1-Adamantylmethyl)-4-[4-[3-[2-(5-ethoxypyridin-3-yl)phenyl]propanoyl]piperazin-1-yl]-N-methylbenzamide], the “ASMS ratio (%) n = 1” value was 1.3% and the “ASMS ratio (%) n = 2” value is −0.6%.

`CCOc1cccc(-c2ccc(C(=O)N3CCN(c4ccc(C(=O)N(C)CC56CC7CC(CC(C7)C5)C6)cc4)CC3)c3ccccc23)c1` [B3A035-01, N-(1-Adamantylmethyl)-4-[4-[4-(3-ethoxyphenyl)naphthalene-1-carbonyl]piperazin-1-yl]-N-methylbenzamide]: the “ASMS ratio (%) n = 1” value was found to be 9.7% and the “ASMS ratio (%) n = 2” value came to 4.4%.

These data come from patent publication US20240132431A1, “METHOD FOR ALKYLATING ACIDIC FUNCTIONAL GROUP” (Chugai Seiyaku Kabushiki Kaisha, priority 2021, published 2024).
